Results taken from patent US20220169646A1, “HETEROCYCLIC COMPOUNDS AND USES THEREOF” (Nuvation Bio Inc., priority 2019, published 2022).

Legend:
WEE1 kinase enzyme = molecular target: T1, WEE1 kinase enzyme (Homo sapiens, UniProt P30291); assay: WEE1 IC50 determination, LanthaScreen Terbium Labeled TR-FRET kinase assay; type: biochemical; conditions: WEE1 enzyme 1 nM, ATP 10 μM, 1 h
T1 construct: purchased Invitrogen, Life Technologies PR7373A
Procedure: IC50 values of compounds against WEE1 kinase enzyme were determined by LanthaScreen™ Terbium Labeled TR-FRET assay. Kinase assays were performed in 1× kinase buffer (#PV6135, Invitrogen, Life Technologies Grand Island, N.Y.) where total reaction volume was 10 μL in low-volume 384-well plates (#4511, Corning). Serially diluted compounds (3-fold) were incubated with WEE1 Enzyme (1 nM) (#PR7373A, Invitrogen, Life Technologies, Grand Island, N.Y.) for 10 min, and a mixture of ATP (10 μM) (#A1852, Sigma, St. Louis, Mo.) and fluorescent-PolyGT substrate (200 nM) (#PV3610, Invitrogen, Life Technologies, Grand Island, N.Y.) was added and incubated in the dark at room temperature for 1 h. After 1 h, a 10 μL stop solution containing terbium labeled antibody (4 nM) (#PV3529, Invitrogen, Life Technologies Grand Island, N.Y.) and EDTA (#E5134, Sigma, St. Louis, Mo.) (20 mM) in TR-FRET dilution buffer (#PV3574, Invitrogen, Life Technologies, Grand Island, N.Y.) was added. Readings were taken in a Synergy Neo Plate reader (BioTek, Winooski, Vt.) at single excitation of 340 nm and dual emission at 495 nm and 520 nm respectively.
The % activity of test samples was calculated as (Sample−Min)*100/(Max−Min). [Max: DMSO control, complete reaction with enzyme & DMSO and Min: No enzyme & DMSO]. Percent inhibition (100−% activity) was fitted to the “four-parameter logistic model” in XLfit for determination of IC50 values.

A427 cells = assay: Cytotoxicity assay in A427 cell line (resazurin); type: cell-based; conditions: Homo sapiens, A-427, A427 lung epithelial cell line, 72 hr incubation, inhibition of proliferation
Procedure: A427 (HTB-53; ATCC), a lung epithelial cell line, was seeded in medium (MEM, 41090101; Gibco) at a cell count of 1500 cells per 100 μL per well in a 96 well edge plate (167425; ThermoFisher). Cells were allowed to grow at 37° C. for 24 hr in 5% CO2 environment (culture conditions) in a Nuaire incubator (humidified). Serially diluted test compounds (100 μL) within the desired testing concentration ranges were added to the culture plate and the cells were further incubated in culture conditions for 72 hr. The experiment was terminated at the designated incubation time by replacing the medium with 100 μL of 1 mM of resazurin (R7017; Sigma) prepared in culture medium, and the plates were further incubated in culture conditions for 4-6 hr. Fluorescence was recorded using a multimodal plate reader (Biotek Synergy Neo) at an excitation wavelength of 535 nm and emission wavelength of 590 nm to obtain relative fluorescence units. Data were analysed as follows: the background fluorescence (blank containing only medium) value was subtracted from each reading and normalized with the vehicle control (DMSO treated cells) to obtain percent survival/proliferation. Percent survival was subtracted from 100 to get the percent inhibition of proliferation which was used to calculate IC50 values. Potency of compounds in other cell lines (such as A549, As-Pc-1, Panc 10.05, A172, U-87 MG) may be determined in an analogous manner.

[1] = system: phospho-CDC2 (Tyr15) in A427 cells; assay: Phospho-CDC2 (Tyr15) sandwich ELISA in A427 cells; type: cell-based; conditions: Homo sapiens, A-427, PathScan Phospho-CDC2 (Tyr15) ELISA, specified time (e.g., 24 hr)
Procedure: Changes in the levels of phospho-CDC2 following treatment of cells with test compounds were assessed by enzyme-linked immunosorbent assay (ELISA). A427 cells were plated in 6-well plates and cultured for 24 hr to approximately 80-90% confluency. Medium was replaced, and the cells were treated with the vehicle control or the test compound at several different concentrations. After incubation of treated cells in cell culture conditions for a specified time (e.g., 24 hr), cells were rinsed with ice-cold PBS and lysed in 1× cell lysis buffer containing protease inhibitors and phosphatase inhibitors. The cells were scraped from the plate with a cell scraper after a brief incubation on ice and transferred to a centrifuge tube, and then subjected to three freeze-thaw cycles in liquid nitrogen and a 37° C. water bath for further lysis. The lysates were centrifuged to pellet cell debris (using, for example, a 10 min centrifugation of 2000×g at 4° C.) and the supernatants transferred to fresh tubes on ice. The protein concentrations of the samples were estimated by the Bradford method or equivalent. The ELISA was carried out with the PathScan® Phospho-CDC2 (Tyr15) Sandwich ELISA Kit (Cat. #7176, Cell Signaling Technology, Danvers, Mass.) according to the manufacturer's instructions.

T1 sequence (P30291 whole entry): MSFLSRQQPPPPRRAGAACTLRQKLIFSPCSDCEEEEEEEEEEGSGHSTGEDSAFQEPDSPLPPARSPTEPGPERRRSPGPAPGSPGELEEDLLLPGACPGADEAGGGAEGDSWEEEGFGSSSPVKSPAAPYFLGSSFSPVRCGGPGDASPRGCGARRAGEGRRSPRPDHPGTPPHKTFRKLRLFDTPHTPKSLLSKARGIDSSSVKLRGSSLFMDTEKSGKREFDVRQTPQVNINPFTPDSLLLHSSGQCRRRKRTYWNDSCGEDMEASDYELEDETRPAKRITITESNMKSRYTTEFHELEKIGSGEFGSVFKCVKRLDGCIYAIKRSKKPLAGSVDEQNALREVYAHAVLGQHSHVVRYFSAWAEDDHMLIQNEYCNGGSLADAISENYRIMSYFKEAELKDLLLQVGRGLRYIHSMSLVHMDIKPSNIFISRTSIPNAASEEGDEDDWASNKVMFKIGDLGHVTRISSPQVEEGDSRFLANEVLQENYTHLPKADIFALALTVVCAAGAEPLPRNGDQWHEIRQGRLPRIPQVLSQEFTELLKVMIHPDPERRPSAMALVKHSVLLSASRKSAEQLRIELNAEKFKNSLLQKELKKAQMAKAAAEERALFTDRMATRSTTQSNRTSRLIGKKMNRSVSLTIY

| IC50 (WEE1 kinase enzyme) [nM] | IC50 [1] [nM] | Compound | IC50 (A427 cells) [nM] |
| --- | --- | --- | --- |
| 21 |  | CC(C)N1CCc2cc(Nc3ncc4c(=O)n(C(C)C)n(-c5ccnc(C(C)(C)C)c5)c4n3)ccc2C1 [Compound 1.5, 1-(2-(tert-butyl)pyridin-4-yl)-2-isopropyl-6-((2-isopropyl-1,2,3,4-tetrahydroisoquinolin-6-yl)amino)-1,2-dihydro-3H-pyrazolo[3,4-d]pyrimidin-3-one] | 2070 |
| 2 |  | CC(C)n1c(=O)c2cnc(Nc3ccc4c(c3)CCNC4)nc2n1-c1cccc(C(=O)N(C)C)c1 [Compound 1.3, 3-(2-isopropyl-3-oxo-6-((1,2,3,4-tetrahydroisoquinolin-6-yl)amino)-2,3-dihydro-1H-pyrazolo[3,4-d]pyrimidin-1-yl)-N,N-dimethylbenzamide] | 8160 |
| 107 |  | CC(C)n1cc(-n2c3nc(Nc4ccc5c(c4)CCNC5)ncc3c(=O)n2C(C)C)cn1 [Compound 1.1, 2-isopropyl-1-(1-isopropyl-1H-pyrazol-4-yl)-6-((1,2,3,4-tetrahydroisoquinolin-6-yl)amino)-1,2-dihydro-3H-pyrazolo[3,4-d]pyrimidin-3-one] | > 30000 |
| 4 |  | COCC(C)(C)c1cccc(-n2c3nc(Nc4ccc5c(c4)CNCC5)ncc3c(=O)n2C(C)C)n1 [Compound 1.2, 2-isopropyl-1-(6-(1-methoxy-2-methylpropan-2-yl)pyridin-2-yl)-6-((1,2,3,4-tetrahydroisoquinolin-7-yl)amino)-1,2-dihydro-3H-pyrazolo[3,4-d]pyrimidin-3-one] | 295 |
| 8 |  | CC(C)n1c(=O)c2cnc(Nc3ccc4c(c3)CCNC4)nc2n1-c1ccc(C#N)cc1 [Compound 1.86, 4-(2-isopropyl-3-oxo-6-(1,2,3,4-tetrahydroisoquinolin-6-ylamino)-2,3-dihydro-1H-pyrazolo[3,4-d]pyrimidin-1-yl)benzonitrile] | 1070 |
| 3 |  | CC(C)n1c(=O)c2cnc(Nc3ccc4c(c3)CNCC4)nc2n1-c1cccc(C(=O)N(C)C)c1 [Compound 1.4, 3-(2-isopropyl-3-oxo-6-((1,2,3,4-tetrahydroisoquinolin-7-yl)amino)-2,3-dihydro-1H-pyrazolo[3,4-d]pyrimidin-1-yl)-N,N-dimethylbenzamide] | 3510 |
| 4 |  | CC(C)n1c(=O)c2cnc(Nc3ccc4c(c3)CCN(CCCN)C4)nc2n1-c1ccnc(C(C)(C)C)c1 [Compound 1.87, 2,2,2-trifluoroacetaldehyde compound with 6-((2-(3-aminopropyl)-1,2,3,4-tetrahydroisoquinolin-6-yl)amino)-1-(2-(tert-butyl)pyridin-4-yl)-2-isopropyl-1,2-dihydro-3H-pyrazolo[3,4-d]pyrimidin-3-one] |  |
| 5 | 278 | CC(C)n1c(=O)c2cnc(Nc3ccc4c(c3)CNCC4)nc2n1-c1ccc(C#N)cc1 [Compound 1.85, 4-(2-isopropyl-3-oxo-6-(1,2,3,4-tetrahydroisoquinolin-7-ylamino)-2,3-dihydro-1H-pyrazolo[3,4-d]pyrimidin-1-yl)benzonitrile] | 1860 |
